Experiments:
[1] = target: His-His-(EK)-hsBCLXL(2-197)[N197C] (Homo sapiens (Human), UniProt Q07817, N197C); experiment: Fluorescence quenching assay; assay type: binding; settings: 1 nM Cy5-labelled protein, 400 nM PUMA peptide, 2 hours at 23° C.; KI determined from IC50
In short: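 Ki values converted from IC50s, measured as fluorescence increase (Ex 620/Em 680 nm) after 2 h at 23° C. Compounds were titrated over 11 points against 1 nM Cy5-BCL-xL and 400 nM quencher-tagged PUMA peptide in pH 7.4 HEPES (10 mM), 150 mM NaCl, 0.05% Tween 20, 5% DMSO.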

MOLT-4 cells = experiment: MOLT-4 cell viability using MTT assay; assay type: cell-based; settings: 48 h exposure
Method: MTT colorimetric assay is based on the mitochondrial reduction of tetrazolium salt by living cells.
Cells were cultured at 37° C. in a humidified atmosphere containing 5% CO2. […] At the end of incubation time, 15 μL of MTT solution (5 mg/ml) were added per well and the cells were incubated for another 4 h. […] IC50s were calculated using standard four-parametric curve fitting.

Sequence of His-His-(EK)-hsBCLXL(2-197)[N197C] (Q07817 2-197 N197C): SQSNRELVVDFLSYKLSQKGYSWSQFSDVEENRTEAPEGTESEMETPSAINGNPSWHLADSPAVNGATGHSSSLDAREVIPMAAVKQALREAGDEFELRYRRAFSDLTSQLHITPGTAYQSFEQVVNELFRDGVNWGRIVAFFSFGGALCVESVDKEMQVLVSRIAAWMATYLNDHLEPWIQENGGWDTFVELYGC

| Compound | Ki [1] [nM] | IC50 (MOLT-4 cells; Homo sapiens, MOLT-4, 48 h) [nM] | IC50 (MOLT-4 cells) [nM] |
| --- | --- | --- | --- |
| CC(=O)N(C)CC#Cc1ccc(OCCCc2sc(N3CCCc4c3nnc(Nc3nc5ccccc5s3)c4C)nc2C(=O)O)c(F)c1 [Example 139, 5-[3-[4-[3-[acetyl(methyl)amino]prop-1-ynyl]-2-fluoro-phenoxy]propyl]-2-[3-(1,3-benzothiazol-2-ylamino)-4-methyl-6,7-dihydro-5H-pyrido[2,3-c]pyridazin-8-yl]thiazole-4-carboxylic acid] | 0.02 | 0.995 | – |
| CNC(C)(C)C#Cc1ccc(OCCCc2sc(N3CCCc4c3nnc(Nc3nc5ccccc5s3)c4C)nc2C(=O)O)c(F)c1 [Example 91, 2-[3-(1,3-Benzothiazol-2-ylamino)-4-methyl-6,7-dihydro-5H-pyrido[2,3-c]pyridazin-8-yl]-5-[3-[2-fluoro-4-[3-methyl-3-(methylamino)but-1-ynyl]phenoxy]propyl]thiazole-4-carboxylic acid] | 0.0057 | 0.359 | – |
| Cc1c(Nc2nc3ccccc3s2)nnc2c1CCCN2c1nc(C(=O)O)c(CCCOc2ccc(C#CCN(C)CC[C@H](O)CO)cc2F)s1 [Example 148, 2-[3-(1,3-benzothiazol-2-ylamino)-4-methyl-6,7-dihydro-5H-pyrido[2,3-c]pyridazin-8-yl]-5-[3-[4-[3-[[(3S)-3,4-dihydroxybutyl]-methyl-amino]prop-1-ynyl]-2-fluoro-phenoxy]propyl]thiazole-4-carboxylic acid] | 0.0059 | 0.277 | – |
| Cc1c(Nc2nc3ccccc3s2)nnc2c1CCCN2c1ccc(-c2cnn(CC34CC5(C)CC(C)(C3)CC(OCCN3CCCCCC3)(C5)C4)c2C)c(C(=O)O)n1 [Example 145, 3-[1-[[3-[2-(azepan-1-yl)ethoxy]-5,7-dimethyl-1-adamantyl]methyl]-5-methyl-pyrazol-4-yl]-6-[3-(1,3-benzothiazol-2-ylamino)-4-methyl-6,7-dihydro-5H-pyrido[2,3-c]pyridazin-8-yl]pyridine-2-carboxylic acid] | 0.0018 | 0.265 | – |
| Cc1c(Nc2nc3ccccc3s2)nnc2c1CCCN2c1nc(C(=O)O)c(CCCOc2cc(C#CCN(C)C)ccc2F)s1 [Example 78, 2-[3-(1,3-Benzothiazol-2-ylamino)-4-methyl-6,7-dihydro-5H-pyrido[2,3-c]pyridazin-8-yl]-5-[3-[5-[3-(dimethylamino)prop-1-ynyl]-2-fluoro-phenoxy]propyl]thiazole-4-carboxylic acid] | 0.023 | 2.46 | – |
| CCN(C)CC#Cc1ccc(OCCCc2sc(N3CCCc4c3nnc(Nc3nc5ccccc5s3)c4C)nc2C(=O)O)c(F)c1 [Example 88, 2-[3-(1,3-Benzothiazol-2-ylamino)-4-methyl-6,7-dihydro-5H-pyrido[2,3-c]pyridazin-8-yl]-5-[3-[4-[3-[ethyl(methyl)amino]prop-1-ynyl]-2-fluoro-phenoxy]propyl]thiazole-4-carboxylic acid] | 0.01 | 0.181 | – |
| Cc1c(Nc2nc3ccccc3s2)nnc2c1CCCN2c1nc(C(=O)O)c(CCCOc2ccc(C#CC(C)(C)N3CCCC3)cc2F)s1 [Example 81, 2-[3-(1,3-Benzothiazol-2-ylamino)-4-methyl-6,7-dihydro-5H-pyrido[2,3-c]pyridazin-8-yl]-5-[3-[2-fluoro-4-(3-methyl-3-pyrrolidin-1-yl-but-1-ynyl)phenoxy]propyl]thiazole-4-carboxylic acid] | 0.015 | 0.175 | – |
| CCN(CC)CC#Cc1ccc(OCCCc2sc(N3CCCc4c3nnc(Nc3nc5ccccc5s3)c4C)nc2C(=O)O)c(F)c1 [Example 85, 2-[3-(1,3-Benzothiazol-2-ylamino)-4-methyl-6,7-dihydro-5H-pyrido[2,3-c]pyridazin-8-yl]-5-[3-[4-[3-(diethylamino)prop-1-ynyl]-2-fluoro-phenoxy]propyl]thiazole-4-carboxylic acid] | 0.044 | 0.416 | – |
| Cc1c(Nc2nc3ccccc3s2)nnc2c1CCCN2c1nc(C(=O)O)c(CCCOc2ccc(C#CCN3CCNCC3)cc2F)s1 [Example 79, 2-[3-(1,3-Benzothiazol-2-ylamino)-4-methyl-6,7-dihydro-5H-pyrido[2,3-c]pyridazin-8-yl]-5-[3-[2-fluoro-4-(3-piperazin-1-ylprop-1-ynyl)phenoxy]propyl]thiazole-4-carboxylic acid] | 0.0052 | 1.01 | – |
| Cc1c(Nc2nc3ccccc3s2)nnc2c1CCCN2c1nc(C(=O)O)c(CCCOc2ccc(C#CCN3C[C@@H](C)N[C@@H](C)C3)cc2F)s1 [Example 89, 2-[3-(1,3-Benzothiazol-2-ylamino)-4-methyl-6,7-dihydro-5H-pyrido[2,3-c]pyridazin-8-yl]-5-[3-[4-[3-[(3R,5S)-3,5-dimethylpiperazin-1-yl]prop-1-ynyl]-2-fluoro-phenoxy]propyl]thiazole-4-carboxylic acid] | 0.0028 | 0.57 | – |

The next lines start with the values.

| Ki [1] [nM] | IC50 (MOLT-4 cells; Homo sapiens, MOLT-4, 48 h) [nM] | IC50 (MOLT-4 cells) [nM] | Compound |
| --- | --- | --- | --- |
| 0.0015 | 0.219 | – | Cc1c(Nc2nc3ccccc3s2)nnc2c1CCCN2c1ccc(-c2cnn(CC34CC5(C)CC(C)(C3)CC(OCCN(C)CCO)(C5)C4)c2C)c(C(=O)O)n1 [Example 150, 6-[3-(1,3-benzothiazol-2-ylamino)-4-methyl-6,7-dihydro-5H-pyrido[2,3-c]pyridazin-8-yl]-3-[1-[[3-[2-[2-hydroxyethyl(methyl)amino]ethoxy]-5,7-dimethyl-1-adamantyl]methyl]-5-methyl-pyrazol-4-yl]pyridine-2-carboxylic acid] |
| 0.0019 | 0.0532 | – | Cc1c(Nc2nc3ccccc3s2)nnc2c1CCCN2c1ccc(-c2cnn(CC34CC5(C)CC(C)(CC(CCCN(C)C)(C5)C3)C4)c2C)c(C(=O)O)n1 [Example 167, 6-[3-(1,3-benzothiazol-2-ylamino)-4-methyl-6,7-dihydro-5H-pyrido[2,3-c]pyridazin-8-yl]-3-[1-[[3-[3-(dimethylamino)propyl]-5,7-dimethyl-1-adamantyl]methyl]-5-methyl-pyrazol-4-yl]pyridine-2-carboxylic acid] |
| 0.0018 | 3.05 | – | Cc1c(Nc2nc3ccccc3s2)nnc2c1CCCN2c1ccc(-c2cnn(CC34CC5(C)CC(C)(C3)CC(OCCNC(CO)CO)(C5)C4)c2C)c(C(=O)O)n1 [Example 135, 6-[3-(1,3-benzothiazol-2-ylamino)-4-methyl-6,7-dihydro-5H-pyrido[2,3-c]pyridazin-8-yl]-3-[1-[[3-[2-[[2-hydroxy-1-(hydroxymethyl)ethyl]amino]ethoxy]-5,7-dimethyl-1-adamantyl]methyl]-5-methyl-pyrazol-4-yl]pyridine-2-carboxylic acid] |
| 0.0018 | 0.284 | – | Cc1c(Nc2nc3ccccc3s2)nnc2c1CCCN2c1ccc(-c2cnn(CC34CC5(C)CC(C)(C3)CC(OCCN3CCN(C)CC3)(C5)C4)c2C)c(C(=O)O)n1 [Example 128, 6-[3-(1,3-benzothiazol-2-ylamino)-4-methyl-6,7-dihydro-5H-pyrido[2,3-c]pyridazin-8-yl]-3-[1-[[3,5-dimethyl-7-[2-(4-methylpiperazin-1-yl)ethoxy]-1-adamantyl]methyl]-5-methyl-pyrazol-4-yl]pyridine-2-carboxylic acid] |
| 0.0017 | – | 4.58 | Cc1c(Nc2nc3ccccc3s2)nnc2c1CCCN2c1ccc(-c2cnn(CC34CC5(C)CC(C)(C3)CC(OCCNCCC(O)CO)(C5)C4)c2C)c(C(=O)O)n1 (stereo in doubt) [Example 92, 6-{3-[(1,3-benzothiazol-2-yl)amino]-4-methyl-6,7-dihydropyrido[2,3-c]pyridazin-8(5H)-yl}-3-(1-{[3-(2-{[(3S)-3,4-dihydroxybutyl]amino}ethoxy)-5,7-dimethyladamantan-1-yl]methyl}-5-methyl-1H-pyrazol-4-yl)pyridine-2-carboxylic acid] |
| 0.0014 | 0.0546 | – | Cc1c(Nc2nc3ccccc3s2)nnc2c1CCCN2c1ccc(-c2cnn(CC34CC5(C)CC(C)(C3)CC(OCCN3CCCCC3)(C5)C4)c2C)c(C(=O)O)n1 [Example 143, 6-[3-(1,3-benzothiazol-2-ylamino)-4-methyl-6,7-dihydro-5H-pyrido[2,3-c]pyridazin-8-yl]-3-[1-[[3,5-dimethyl-7-[2-(1-piperidyl)ethoxy]-1-adamantyl]methyl]-5-methyl-pyrazol-4-yl]pyridine-2-carboxylic acid] |
| 0.0056 | 0.205 | – | Cc1c(Nc2nc3ccccc3s2)nnc2c1CCCN2c1ccc(-c2cnn(CC34CC5(C)CC(C)(C3)CC(OCCN(C)C)(C5)C4)c2C)c(C(=O)O)n1 [Example 95, 6-{3-[(1,3-benzothiazol-2-yl)amino]-4-methyl-6,7-dihydropyrido[2,3-c]pyridazin-8(5H)-yl}-3-[1-({3-[2-(dimethylamino)ethoxy]-5,7-dimethyladamantan-1-yl}methyl)-5-methyl-1H-pyrazol-4-yl]pyridine-2-carboxylic acid] |
| 0.0021 | 1.68 | – | Cc1c(Nc2nc3ccccc3s2)nnc2c1CCCN2c1ccc(-c2cnn(CC34CC5(C)CC(C)(C3)CC(OCCNCC(CO)CO)(C5)C4)c2C)c(C(=O)O)n1 [Example 133, 6-[3-(1,3-benzothiazol-2-ylamino)-4-methyl-6,7-dihydro-5H-pyrido[2,3-c]pyridazin-8-yl]-3-[1-[[3-[2-[[3-hydroxy-2-(hydroxymethyl)propyl]amino]ethoxy]-5,7-dimethyl-1-adamantyl]methyl]-5-methyl-pyrazol-4-yl]pyridine-2-carboxylic acid] |
